Measured values published in patent publication US9238019B2, “Antitussive and bronchodilator uses for enaminone ester” (UNIVERSITY OF KUWAIT, priority 2006, dated 2016).

Legend:
Solid-state stability = assay type: physicochemical; conditions: room temperature
guinea pigs [1] = assay: Citric acid-induced cough in conscious guinea pigs (whole body plethysmography); assay type: in vivo, guinea pig; conditions: 100 mg/kg in DMSO intraperitoneally, 1 h before citric acid (0.6 M) aerosol; coughs counted over 15 min; vs vehicle group; FIG. 2
Description: (§1) In order to test the effectiveness of enaminone ester E121 as an antitussive, two groups of guinea pigs were established. Group 1 was a control group, which consisted of ten guinea pigs, who were administered vehicle only (100% dimethyl sulfoxide [DMSO]) intraperitoneally. Group 2 was a test group, which consisted of ten guinea pigs, who were administered enaminone E121 (100 mg/kg in DMSO) intraperitoneally (i.e., via intraperitoneal injection). Each group was separately placed in a transparent whole body plythesmography box (Buxco, Troy, N.Y.) for testing one hour after administration of the vehicle or the enaminone ester E121, respectively.
Each group was allowed a settling period in the whole body plethysmograph, after which baseline airway function was recorded for 2 minutes before administration of an aerosol. Animals in each group were then exposed to citric acid (0.6 M) aerosol for 10 minutes, during which cough and airway function were recorded, and for an additional 5 minutes thereafter (a total of 15 minutes). The aerosols were generated using a DeVilbiss aerogen ultrasonic nebulizer (DeVilbiss, Somerset, Pa.), the nebulized spray having an aerodynamic mass median diameter droplet size range of […] (manufacturer's indication). […]
Coughs were recorded from conscious, unrestrained guinea pigs manually by a trained observer as confirmation. […]

guinea pigs [2] = assay: Airway obstruction (enhanced pause, Penh) during citric acid aerosol exposure; assay type: in vivo, guinea pig; conditions: 100 mg/kg in DMSO intraperitoneally; citric acid (0.6 M) aerosol; vs vehicle group; FIG. 3
Description: as §1
Each group was allowed a settling period in the whole body plethysmograph, after which baseline airway function was recorded for 2 minutes before administration of an aerosol. Animals in each group were then exposed to citric acid (0.6 M) aerosol for 10 minutes, during which cough and airway function were recorded, and for an additional 5 minutes thereafter (a total of 15 minutes). […]
The pressure differences between the main chamber of the whole body plethysmograph containing the animals and a reference chamber (box pressure signal) were measured. […]

[3] = system: guinea pig bronchial preparations pre-contracted with carbachol; assay: Agonist-induced relaxation of guinea pig bronchial ring preparations pre-contracted with carbachol; conditions: concentration response curves repeated after one hour; compared with salbutamol
Description: Two groups of guinea pigs, each group containing twelve guinea pigs, were decapitated under light ether anesthesia and the tracheas were dissected out with the lungs en bloc. The origin of bifurcation of the trachea into bronchioles was identified after removal of the excess connective tissue. The isolated bronchioles were cut into ring segments of 4 mm in length. The preparations were mounted in organ baths containing 25 mL Krebs-Henseleit (KH) solution at pH 7.4, maintained at 37° C. and aerated with a 95% O2 and 5% CO2 mixture. The preparations were left to stabilize for 45 minutes, changing the KH solution at 15-minute intervals. A pre-tension of 0.75 gm was applied, and a stabilization period of 45 minutes was allowed until a stable baseline tone was obtained. Isolated segments of the bronchioles were pre-contracted with carbachol (3 μM). Responses of the carbachol pre-contracted bronchial ring segments to the different agonists were determined by measurement of changes in the isometric tension, using computerized automatic organ bath analyzing instruments.
Bronchodilator responses to salbutamol (10^−9-3×10^−4 M) and enaminone ester E121 (10^−9-10^−4 M) were investigated on different preparations of the bronchioles. […] The bronchodilator responses were expressed as a percentage reduction of the carbachol induced pre-contraction. […]

CCOC(=O)C1C(=O)C=C(Nc2ccc(Cl)cc2)CC1C (stereo not shown) [enaminone E121, ethyl 4-[(4-chlorophenyl)amino]-6-methyl-2-oxocyclohex-3-en-1-oate]
stability of the solid (Solid-state stability): stable solid at room temperature
number of coughs (guinea pigs [1]): substantially lower incidence of coughs
enhanced pause (Penh), bronchoconstriction or airway obstruction (guinea pigs [2]): less bronchoconstriction or airway obstruction
tachyphylaxis of airway smooth muscle relaxant effect [3]: lower levels of tachyphalaxis than salbutamol
